pIC50, pKd: −log10 of the molar value.
Assays:
[1] = target: T1, TYK2 (JH2domain-pseudokinase) (Homo sapiens, UniProt P29597); test: TYK2 JH2 domain binding assay (KINOMEscan)
T1 construct: TYK2 (JH2domain-pseudokinase)-tagged T7 phage strains were prepared in an E. coli host derived from the BL21 strain; made in house; host or cells: E. coli BL21-derived host (T7 phage) or HEK-293 cells
Method: TYK2 (JH2domain-pseudokinase) KINOMEscan assay. For the assay, TYK2 (JH2domain-pseudokinase)-tagged T7 phage strains were prepared in an E. coli host derived from the BL21 strain.E. coli were grown to log-phase and infected with T7 phage and incubated with shaking at 32°C until lysis. The lysates were centrifuged and filtered to remove cell debris. The remaining TYK2 (JH2domain-pseudokinase) were produced in HEK-293 cells and subsequently tagged with DNA for qPCR detection. Streptavidin-coated magnetic beads were treated with biotinylated small molecule ligands for 30 minutes at room temperature to generate affinity resins for kinase assays. The liganded beads were blocked with excess biotin and washed with blocking buffer (SeaBlock (Pierce), 1% BSA, 0.05% Tween 20, 1 mM DTT) to remove unbound ligand and to reduce non-specific binding. Binding reactions were assembled by combining TYK2 (JH2domain-pseudokinase), liganded affinity beads, and test compounds in 1x binding buffer (20% SeaBlock, 0.17x PBS, 0.05% Tween 20, 6 mM DTT). Test compounds were prepared as 111X stocks in 100% DMSO. Kds were determined using an 11-point 3-fold compound dilution series with three DMSO control points. All compounds for Kd measurements are distributed by acoustic transfer (non-contact dispensing) in 100% DMSO. The compounds were then diluted directly into the assays such that the final concentration of DMSO was 0.9%. All reactions performed in polypropylene 384-well plate. Each was a final volume of 0.02 ml. The assay plates were incubated at room temperature with shaking for 1 hour and the affinity beads were washed with wash buffer (1x PBS, 0.05% Tween 20). The beads were then re-suspended in elution buffer (1x PBS, 0.05% Tween 20, 0.5 µM non-biotinylated affinity ligand) and incubated at room temperature with shaking for 30 minutes. The kinase concentration in the eluates was measured by qPCR. […]
An 11-point 3-fold serial dilution of each test compound was prepared in 100% DMSO at 100x final test concentration and subsequently diluted to 1x in the assay (final DMSO concentration = 1%). Most Kds were determined using a compound top concentration = 30,000 nM. If the initial Kd determined was < 0.5 nM (the lowest concentration tested), the measurement was repeated with a serial dilution starting at a lower top concentration.
Curves were fitted using a non-linear least square fit with the Levenberg-Marquardt algorithm. […] TABLE 1: Kd Affinities for Tyk2 JH2 Domain Binding Assay.

[2] = system: STAT1/3 through TYK2/JAK1; test: IFNa induced STAT phosphorylation in HEK293 cells (SIE-bla reporter gene); format: cell-based; details: Homo sapiens, HEK293; HEK293T-sie-bla cells, IFNa at EC80, 4 hours; read-out: Inhibition of IFNa induced STAT phosphorylation HEK293 cells IC50
Method: Stimulation of HEK293T-sie-bla cells with interferon alpha (INFa) activates the signaling pathway of STAT1/3 through TYK2/JAK1. In this assay, measurement of the activity of the reporter gene […]-lactamase expression was used as the readout.
CellSensorTM SIE-bla HEK293T cell line were purchased from Thermo Fisher Scientific (ref. #K1649B) and cultured as specified by the provider. A number of 30.000 cells per well (40 µl) were plated in a 384-well plate (Corning ref.# 3712) and cultured overnight at 37°C with 5% CO2 in a complete Optimem media (ThermoFisher ref. #11058-021) containing 0.5% (v/v) heat inactivated dialyzed FBS (Life Technologies ref. #26400044), 10 µM non-essential aminoacids NEAA (Sigma ref. #M7145), 100 µM Sodium Pyruvate (Gibco ref. #11360-039) and 100 U/mL Penicillin (Sigma ref. #P0781). Compounds were initially dissolved in 100% DMSO. Compound curves were then prepared using a 1/5 serial dilution (10 dilutions). The dilutions were directly diluted in complete Optimem media at 40-fold their final concentration in 20% DMSO. IFNa initial solution (R&D systems ref. #11100-1) was prepared at 10-fold its EC80 in complete Optimem media. Compounds and IFNa were added simultaneously to the wells with cells and incubated during 4 hours at 37°C (the final DMSO was 0.1%). The […]-lactamase substrate (LifeTechnologies ref.#K1138) was prepared at 6-fold its final concentration as specified by the provider. Then 10 µL of the mixture was added to the wells to stop the stimulation. Plate was left in the dark over-night. Then a FRET reading was performed on an appropriate plate reader.
All experiments were analysed using an ExcelFit template and the four-parameter log equation. […] TABLE 2: IC50 Inhibitions of IFNa induced STAT phosphorylation in HEK293 cells

T1 sequence (P29597 589-875 limits assumed): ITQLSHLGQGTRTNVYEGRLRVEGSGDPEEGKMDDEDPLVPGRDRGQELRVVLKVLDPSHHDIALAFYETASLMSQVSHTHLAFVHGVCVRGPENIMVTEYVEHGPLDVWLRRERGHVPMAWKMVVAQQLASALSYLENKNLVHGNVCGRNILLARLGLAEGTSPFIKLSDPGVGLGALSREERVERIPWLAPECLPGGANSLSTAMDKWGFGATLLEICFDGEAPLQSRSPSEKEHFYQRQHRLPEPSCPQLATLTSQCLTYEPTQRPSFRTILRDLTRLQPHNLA

## COc1ccccc1Nc1cc(NC(=O)C2CC2)ncn1 [Example 2, N-[6-(2-methoxyanilino)pyrimidin-4-yl]cyclopropanecarboxamide]
[1]
  pKd: < 8.00
[2]
  pIC50: < 6.00

## COc1c(C)cccc1Nc1cc(NC(=O)C2CC2)ncn1 [Example 3, N-[6-(2-methoxy-3-methyl-anilino)pyrimidin-4-yl]cyclopropanecarboxamide]
[1]
  pKd: 8.00 to 9.00
[2]
  pIC50: < 6.00

## COc1cccc(Nc2cc(Nc3cc(C)nc(C)n3)ncn2)c1 [Example 5, N6-(2,6-dimethylpyrimidin-4-yl)-N4-(3-methoxyphenyl)pyrimidine-4,6-diamine]
[1]
  pKd: 8.00 to 9.00
[2]
  pIC50: < 6.00

## COc1c(F)cccc1Nc1cc(Nc2cc(C)nc(C)n2)ncn1 [Example 7, N6-(2,6-dimethylpyrimidin-4-yl)-N4-(3-fluoro-2-methoxy-phenyl) pyrimidine-4,6-diamine]
[1]
  pKd: < 8.00
[2]
  pIC50: < 6.00

## COc1ccc(C)nc1Nc1cc(Nc2cc(C)nc(C)n2)ncn1 [Example 8, N4-(2,6-dimethylpyrimidin-4-yl)-N6-(3-methoxy-6-methyl-2-pyridyl)pyrimidine-4,6-diamine]
[1]
  pKd: < 8.00
[2]
  pIC50: < 6.00

## COc1c(C)cccc1Nc1cc(Nc2cnn(C3CCOCC3)c2)ncn1 [Example 9, N4-(2-methoxy-3-methyl-phenyl)-N6-(1-tetrahydropyran-4-ylpyrazol-4-yl)pyrimidine-4,6-diamine]
[1]
  pKd: < 8.00
[2]
  pIC50: < 6.00

## Cc1cc(Nc2cc(Nc3ccccc3OC(F)(F)F)ncn2)nc(C)n1 [Example 10, N6-(2,6-dimethylpyrimidin-4-yl)-N4-[2-(trifluoromethoxy)phenyl] pyrimidine-4,6-diamine]
[1]
  pKd: < 8.00
[2]
  pIC50: < 6.00

## Cc1cc(Nc2cc(Nc3ccccc3S(C)(=O)=O)ncn2)nc(C)n1 [Example 11, N6-(2,6-dimethylpyrimidin-4-yl)-N4-(2-methylsulfonylphenyl)pyrimidine-4,6-diamine]
[1]
  pKd: 9.00 to 9.70
[2]
  pIC50: 7.00 to 8.00

## CN(c1ccccc1Nc1cc(Nc2ncn(C)n2)ncn1)S(C)(=O)=O [Example 13, N-methyl-N-[2-[[6-[(1-methyl-1,2,4-triazol-3-yl)amino]pyrimidin-4-yl]amino]phenyl]methanesulfonamide]
[1]
  pKd: < 8.00
[2]
  pIC50: < 6.00

## CN(c1ccccc1Nc1cc(NC(=O)C2CC2)ncn1)S(C)(=O)=O [Example 14, N-[6-[2-[methyl(methylsulfonyl)amino]anilino]pyrimidin-4-yl]cyclopropanecarboxamide]
[1]
  pKd: 9.00 to 9.70
[2]
  pIC50: 6.00 to 7.00

## COc1ccc(Nc2cc(Nc3cc(C)nc(C)n3)ncn2)c(OC)c1 [Example 17, N4-(2,4-dimethoxyphenyl)-N6-(2,6-dimethylpyrimidin-4-yl)pyrimidine-4,6-diamine]
[2]
  pIC50: < 6.00

## Cc1cc(Nc2cc(Nc3cnccc3N(C)S(C)(=O)=O)ncn2)nc(C)n1 [Example 35, N-[3-[[6-[(2,6-dimethylpyrimidin-4-yl)amino]pyrimidin-4-yl]amino]pyridin-4-yl]-N-methylmethanesulfonamide]
[1]
  pKd: < 8.00

## COc1c(Nc2cc(Nc3cc(C)nc(C)n3)ncn2)cccc1-c1ncn(C(F)F)n1 [Example 54, N4-[3-[1-(difluoromethyl)-1,2,4-triazol-3-yl]-2-methoxy-phenyl]-N6-(2,6-dimethylpyrimidin-4-yl)pyrimidine-4,6-diamine]
[2]
  pIC50: 6.00 to 7.00

## COc1c(Nc2cc(Nc3cc(C)nc(C)n3)ncn2)cccc1C1CCCCO1 (centres unmarked) [Example 56, N6-(2,6-dimethylpyrimidin-4-yl)-N4-(2-methoxy-3-tetrahydropyran-2-yl-phenyl)pyrimidine-4,6-diamine]
[2]
  pIC50: < 6.00

## COc1c(Nc2cc(Nc3cc(C)nc(C)n3)ncn2)cccc1-c1ncn(CC2CCCOC2)n1 (centres unmarked) [Example 57, N4-(2,6-dimethylpyrimidin-4-yl)-N6-[2-methoxy-3-[1-(tetrahydropyran-3-ylmethyl)-1,2,4-triazol-3-yl]phenyl]pyrimidine-4,6-diamine]
[2]
  pIC50: 7.00 to 8.00

## COc1c(Nc2cc(Nc3cc(C)nc(C)n3)ncn2)cccc1-c1ncn(C2CC(O)C2)n1 (centres unmarked) [Example 58, 3-[3-[3-[[6-[(2,6-dimethylpyrimidin-4-yl)amino]pyrimidin-4-yl]amino]-2-methoxy-phenyl]-1,2,4-triazol-1-yl]cyclobutanol]
[2]
  pIC50: 6.00 to 7.00

## COc1c(Nc2cc(Nc3cc(C)nc(C)n3)ncn2)cccc1-c1ncn(CC2CCCO2)n1 (centres unmarked) [Example 59, N4-(2,6-dimethylpyrimidin-4-yl)-N6-[2-methoxy-3-[1-(tetrahydrofuran-2-ylmethyl)-1,2,4-triazol-3-yl]phenyl]pyrimidine-4,6-diamine]
[2]
  pIC50: 7.00 to 8.00

## COc1c(Nc2cc(Nc3cc(C)nc(C)n3)ncn2)cccc1-c1ncn(CC2CCOC2)n1 (centres unmarked) [Example 60, N6-(2,6-dimethylpyrimidin-4-yl)-N4-[2-methoxy-3-[1-(tetrahydrofuran-3-ylmethyl)-1,2,4-triazol-3-yl]phenyl]pyrimidine-4,6-diamine]
[2]
  pIC50: 7.00 to 8.00

## Cc1cc(Nc2cc(Nc3ccccc3-c3ncn(C)n3)ncn2)nc(C)n1 [Example 79, N6-(2,6-dimethylpyrimidin-4-yl)-N4-[2-(1-methyl-1,2,4-triazol-3-yl)phenyl]pyrimidine-4,6-diamine]
[2]
  pIC50: < 6.00

## COc1cc(-c2nc(C(F)(F)F)n(C)n2)ccc1Nc1cc(Nc2cc(C)nc(C)n2)ncn1 [Example 82, N6-(2,6-dimethylpyrimidin-4-yl)-N4-[2-methoxy-4-[1-methyl-5-(trifluoromethyl)-1,2,4-triazol-3-yl]phenyl]pyrimidine-4,6-diamine]
[1]
  pKd: 8.00 to 9.00

## [2H]C([2H])([2H])N(c1cc(-c2cnn(C)c2C)ccc1Nc1cc(Nc2cc(C)nc(C)n2)ncn1)S(C)(=O)=O [Example 98, N-[5-(1,5-dimethylpyrazol-4-yl)-2-[[6-[(2,6-dimethylpyrimidin-4-yl)amino]pyrimidin-4-yl]amino]phenyl]-N-(trideuteriomethyl)methanesulfonamide]
[2]
  pIC50: < 6.00

## CN=S(C)(=O)c1cc(C2CC2)ccc1Nc1cc(Nc2cc(C)nc(C)n2)ncn1 (centres unmarked) [Example 118, N4-[4-cyclopropyl-2-(N,S-dimethylsulfonimidoyl)phenyl]-N6-(2,6-dimethylpyrimidin-4-yl)pyrimidine-4,6-diamine]
[2]
  pIC50: > 8.00

## Cc1cc(Nc2cc(Nc3ncc(-c4cnn(C)c4C)cc3[S+](C)[O-])ncn2)nc(C)n1 (centres unmarked) [Example 173, N4-[5-(1,5-dimethylpyrazol-4-yl)-3-methylsulfinyl-2-pyridyl]-N6-(2,6-dimethylpyrimidin-4-yl)pyrimidine-4,6-diamine]
[2]
  pIC50: > 8.00

## COc1c(-c2ncn(C)n2)ccnc1Nc1cc(Nc2ccc(F)c(C)n2)ncn1 [Example 174, N4-(5-fluoro-6-methyl-2-pyridyl)-N6-[3-methoxy-4-(1-methyl-1,2,4-triazol-3-yl)-2-pyridyl]pyrimidine-4,6-diamine]
[2]
  pIC50: 7.00 to 8.00

## Cc1cc(Nc2cc(Nc3ncc(C4CCCCO4)cc3S(C)(=O)=O)ncn2)nc(C)n1 (centres unmarked) [Example 175, 6-N-(2,6-dimethylpyrimidin-4-yl)-4-N-[3-methylsulfonyl-5-(oxan-2-yl)pyridin-2-yl]pyrimidine-4,6-diamine]
[2]
  pIC50: > 8.00

From patent EP4206196A1, “PYRIMIDINE SUBSTITUTED DERIVATIVES AS TYK2 INHIBITORS” (Almirall S.A., priority 2021, dated 2023)
